This is an account of results in US8299106B2, “Compositions of kinase inhibitors and their use for treatment of cancer and other diseases related to kinases” (Boston Biomedical, Inc., priority 2007, dated 2012).

One assay concerns MDA-MB-231. In words: Colony formation assay (CFA), MDA-MB-231. It counts as cell-based. The note with it: grown 7-10 days. As for the experimental part:
(§1) Cell Viability Determination: For colony formation assay, cells were plated in 6 well plates at 2000 cells per well. Twenty-four hours after plating, cells were treated with compound. Colonies were allowed to develop for 7-10 days, at which they were stained with modified Giemsa stain (Sigma). Stained colonies were then counted to determine IC50.
(§2) Compounds 5 [as shown in Example 1], 3 [as shown in Example 1], 7-1[as shown in Example 1], 10-2 [as shown in Example 3], 10-1 [as shown in Example 2], and 13-1 [as shown in Example 4] were tested for their ability to inhibit cell growth and promote cell death using the colony formation assay (CFA). Cells were treated for either 6 or twenty-four hours with the indicated compounds, and then allowed to grow for an additional 7-10 days. Cells were then stained, and colonies counted to determine IC-50 values.

The test system of a further assay is HT29. In words: Colony formation assay (CFA), HT29. The note with it: grown 7-10 days. It counts as cell-based. As for the experimental part: as §1, §2
(§3) Similarly, Compound 10-2 [as shown in Example 3] was tested against a wide range of cancer cell lines.

For another assay, the system named is FaDu. Put plainly: Colony formation assay (CFA), FaDu. The note with it: Homo sapiens, treated 6 or 24 hours, grown 7-10 days. It counts as cell-based. As to the method: as §1, §2, §3
For assay [1], the system named is Hoechst side population of SW480 cells. In words: Colony formation assay, Hoechst side population vs non-side population. It counts as cell-based. The note with it: colony formation assays, FIG. 4B. As for the experimental part: as §1
Hoechst Side Population: SW480 cells were removed from the culture dish with trypsin and ethylenediaminetetraacetic acid (“EDTA”), pelleted by centrifugation, washed with phosphate-buffered saline (PBS), and resuspended at 37° C. in Dulbecco's modified Eagle's medium (DMEM) containing 2% FBS and 1 mM 4-(2-hydroxyethyl)-1-piperazineethanesulfonic acid (HEPES). The cells were then labeled with Hoechst 33342 (Invitrogen) at a concentration of 5 μg/mL. The labeled cells were incubated for 120 minutes at 37° C., either alone or with 50 μM verapamil (Sigma-Aldrich, St. Louis). After staining, the cells were suspended in Hanks' balanced saline solution (HBSS; Invitrogen) containing 2% FBS and 1 mM HEPES, passed a through 40 μm mesh filter, and maintained at 4° C. until flow cytometry analysis. The Hoechst dye was excited at 350 nm, and its fluorescence was measured at two wavelengths using a 450 DF10 (450/20 nm band-pass filter) and a 675LP (675 nm long-pass edge filter) optical filter. […]

The subject of the next assay is SW480 cells. Put plainly: Hoechst side population staining of SW480 cells. As to conditions: treated before Hoechst staining (50 μM), FIG. 4A. It counts as cell-based. As for the experimental part:
Hoechst Side Population: SW480 cells were removed from the culture dish with trypsin and ethylenediaminetetraacetic acid (“EDTA”), pelleted by centrifugation, washed with phosphate-buffered saline (PBS), and resuspended at 37° C. in Dulbecco's modified Eagle's medium (DMEM) containing 2% FBS and 1 mM 4-(2-hydroxyethyl)-1-piperazineethanesulfonic acid (HEPES). The cells were then labeled with Hoechst 33342 (Invitrogen) at a concentration of 5 μg/mL. The labeled cells were incubated for 120 minutes at 37° C., either alone or with 50 μM verapamil (Sigma-Aldrich, St. Louis). After staining, the cells were suspended in Hanks' balanced saline solution (HBSS; Invitrogen) containing 2% FBS and 1 mM HEPES, passed a through 40 μm mesh filter, and maintained at 4° C. until flow cytometry analysis. The Hoechst dye was excited at 350 nm, and its fluorescence was measured at two wavelengths using a 450 DF10 (450/20 nm band-pass filter) and a 675LP (675 nm long-pass edge filter) optical filter. The gating on forward and side scatter was not stringent, and only debris was excluded (Goodell et al., 1996 J Exp Med 183, 1797-806).
SW480 cells were stained with Hoechst. The side population (shown in FIG. 4A, upper left panel gated area) was sorted out to enrich the cancer stem cells. […]

For the next assay, the system named is FaDu xenograft tumors. Put plainly: Spherogenesis of cells from treated FaDu xenograft tumors. It counts as in vivo, mice. The note with it: daily po for four days; carboplatin 30 mg/kg, 10-2 100 mg/kg; spheres after 10-14 days. As to the method:
In addition, we also tested if compound 10-2 can target cancer stem cells in vivo. Six-week-old female athymic nu/nu mice were obtained from Charles River Labs (Wilmington, Mass.). Mice were injected subcutaneously on the flank with 6×10^6 FaDu cancer cells in 0.2 mL of serum-free DMEM. After xenografts reached ˜200 mm^3 in size, animals bearing FaDu xenograft tumors were administered daily with either vehicle, carboplatin (30 mg/kg), or compound 10-2 (100 mg/kg) via po for four days before sacrifice. Tumors were then collected for FaDu cells. Single cell suspensions were obtained following animal sacrifice, and sterile removal of tumors. Briefly, tumors were minced with sterile scalpels into 0.1 mm^3 pieces before being digested in 1 mg/mL collagenase/HBSS for 15-30 minutes with constant agitation. Following passage through a 40 μm mesh filter, RBCs, dead cells, and cell debris were removed by layering the cell suspension onto 1 mL of Histopaque and collecting interface layer after centrifugation at 1440×g for 30 minutes. Live cells were then counted and used to measure their ability to form spheres. […] Fresh media was added every three days, and sphere formation was determined after 10-14 days in culture. Spheres with >50 cells were scored. […]

The mark [2] stands for this setting: Homo sapiens, MDA-MB-231, treated 6 or 24 hours.
Setting [3] is: Homo sapiens, HT-29, treated 6 or 24 hours.

What is called IC50 is the point on the concentration scale where inhibition reaches its midpoint.

For `Cc1nc(-c2ccc3c(c2)CC(=O)N3)cs1` [Compound 3], the half-inhibitory concentration (IC50) in the assay with MDA-MB-231 (treated 6 or 24 hours) and in the assay with HT29 (treated 6 or 24 hours) was 50000 to 300000 nM each time. On to `Cc1nc(-c2ccc3c(c2)/C(=C/c2[nH]c(C)c(C(=O)N4CCN(C)CC4)c2C)C(=O)N3)cs1` [Compound 7-1], for which the IC50 in the assay on MDA-MB-231 (setting [2]) and in the assay with HT29 (setting [3]) was 6000 to 10000 nM each time. `Cc1[nH]c(/C=C2\C(=O)Nc3ccc(-c4csc(-c5ccccc5)n4)cc32)c(C)c1C(=O)N1CCN(C)CC1` [Compound 10-1]: the concentration for half-maximal inhibition (IC50) lay within 800 to 1500 nM in the assay on MDA-MB-231 (setting [2]) and 1500 to 3000 nM in the assay with HT29 (setting [3]). Taken in the same sequence, the figures for `Cc1[nH]c(/C=C2\C(=O)Nc3ccc(-c4csc(-c5cccnc5)n4)cc32)c(C)c1C(=O)N1CCN(C)CC1` [Compound 13-1] were 100 to 250 nM and 400 to 800 nM.

`CCN(CC)CCNC(C)c1c(C)[nH]c(/C=C2\C(=O)Nc3ccc(-c4csc(-c5cccnc5)n4)cc32)c1C` (stereo not drawn) [Compound 13-2] displayed an IC50 in the assay on FaDu of 300 to 400 nM. In the case of `COc1cccc2c1C(=O)c1c(O)c3c(c(O)c1C2=O)C[C@@](O)(C(=O)CO)C[C@@H]3O[C@H]1C[C@H](N)[C@H](O)[C@H](C)O1` [Doxorubicin], the “side population relative to non-side population” value in assay [1] was “more resistant”. Take `COc1ccc(CCN(C)CCCC(C#N)(c2ccc(OC)c(OC)c2)C(C)C)cc1OC` (stereo not drawn) [Verapamil]: the “effect on Hoechst side population” value in the assay on SW480 cells is recorded as “loss of the side population”. Regarding `N.N.O=C([O-])C1(C(=O)[O-])CCC1.[Pt+2]` [carboplatin], in the assay with FaDu xenograft tumors, the “spherogenesis of tumor cells after in vivo treatment” value is “unchanged spherogenesis”.
